The source of these data is patent publication US20240207422A1, “NERVE TARGETING PEPTIDE CONJUGATES AND METHODS OF USE” (Alume Biosciences, Inc., priority 2022, published 2024).

The first assay has as its system excised human nerve tissue. The assay is described as follows: Phage display selection on excised human nerve tissue (Nerve2, Nerve3), NextGen sequence counts. As to conditions: unique sequence count (relative enrichment); peptides common to Nerve2, Nerve3 and Plated Nerve 2 sets. It counts as binding. The protocol: Several m13 phage libraries were constructed expressing randomized variants of a parent peptide (QVPWEEPYYVVKKS-SGGL; SEQ ID NO: 576). In particular, the first 14 amino acids of the parent peptide were randomized using degenerate oligonucleotide synthesis to obtain a diverse set of peptides with a mutation rate of about 50% per residue.
To accomplish this, synthesis was carried out by the XXK codon design approach, where X is any base and K is G or T. To bias synthesis towards the parent sequence, synthesis was carried out at each X position with a mixture of about 70%-85% of the parent nucleotide and 15-30% of the remaining 3 nucleotides. The resulting molecules were inserted into fADL-1e (Antibody Design Laboratories), which is a type 3 phage display vector having a cloning site on the N-terminal side of the full-length gene III protein. The fusion proteins are directed to the periplasm by the PelB leader peptide, which is inserted in the vector […].
Collectively, the phage display libraries used in the screens comprised about 600 million peptides, with sequencing analysis confirming a mutation rate of about 50% per residue.
Phage libraries were independently processed, as follows, with five biological samples: two independent samples of excised human nerve tissue, one sample of a human nerve extract, and two independent samples of human muscle tissue, as follows:
Excised Human Nerve Tissue: For each of the two independent samples, phage were processed through multiple cycles of selection, with representative phage being isolated and sequenced after each selection cycle. Specifically, for selection using human nerve tissue, a sample of […] tissue (2 mm by 2 mm) was washed prior to mixing and incubation with a phage library. After incubation, the mixture (containing mostly intact nerves with phage particles that had variable affinity for nerves) was centrifuged and the nerve pellet washed multiple times with PBS to remove phage with little or no affinity for nerve tissue. The pellet was homogenized and plated for titering and reamplification. Phage that were bound at each round were sequenced. NextGen sequencing of pools after 2, 3 and 4 rounds of selection were used to isolate candidate sequences that were further analyzed using bioinformatics.
NextGen sequencing of pools after 2, 3 and 4 rounds of selection were used to isolate candidate sequences from each of the five samples. These five data sets were then analyzed as described in the next section.
Peptide and vector sequences were translated starting at the first start codon in the nucleotide sequence. […] Trimmed peptides with identical sequences were combined and quantified according to their frequency (count).
Following processing, an R script was written to merge the unique peptide sequences (with counts 6 or greater) from the 5 different data sets to analyze the overlap between nerve and muscle binding activity.
For the single Nerve2, Nerve3, and Plated Nerve2 (pn2) subsets, the number of counts for each group was set at a threshold giving rise to at least 100 peptides. […] As highlighted in yellow in FIG. 1B, the representative group also included 6 unique peptides overlapping between nerve2 and nerve3, 200 unique peptides overlapping between nerve2 and plated nerve2 (at least 60 counts), 4 unique peptides overlapping between nerve3 and plated nerve2. Finally, as highlighted in green in FIG. 1B, the representative group also included […] common to the nerve2, nerve3, and plated nerve2 sets.
In turn, 1 (TIPYAEPYYVVRKY) [compound 1] gave a Count of 711.

Regarding 2 (DFTMQEPYYAEKKT) [compound 2], the Count stood at 593.

For 3 (HVTWQEQYYVLKTP) [compound 3], the Count turned out to be 371.

In turn, 4 (HVPGVDPYSVVKKF) [compound 4] yielded a Count of 368.

5 (HVAFEQPDNVLVLY) [compound 5] came in with a Count of 357.

For 6 (QVPTEVQFYLVKEP) [compound 6], the Count worked out at 337.

Substance 7 (QLPSEQPCCVVKKY) [compound 7] returned a Count of 329.

8 (QDPWVTRYYIVKKS) [compound 8] returned a Count of 304.

The substance 9 (QVPAKEPYNFMKKS) [compound 9] displayed a Count of 299.

In turn, 10 (YLTWEEPEHVNKQS) [compound 10] returned a Count of 272.

11 (QVPRQELYYVSHQF) [compound 11] returned a Count of 245.

Turning to 12 (QHPFEQSFYVVNKF) [compound 12], the Count worked out at 227.

With 13 (DILLDELRFAEKHG) [compound 13], the Count turned out to be 203.

Consider 14 (YNLWDAPSYLVKNS) [compound 14], for which the Count is 201.

With 15 (HVAGGERYFSVKES) [compound 15], the Count is recorded as 185.

16 (HLPSDQPLSVTKIS) [compound 16]: the Count came to 173.

As to 17 (GFLGEEPYHFLAKR) [compound 17], the Count is 167.

With 18 (LRSTADAHYTLKKS) [compound 18], the Count turned out to be 152.

As for 19 (ATPCSQPCAVVPKF) [compound 19], the Count is 142.

Substance 20 (QYAWEEPYYLEKKL) [compound 20] returned a Count of 140.

In the case of 21 (HLPVEYPFYVFKNS) [compound 21], the Count is recorded as 131.

Substance 22 (RGSLEGPFKLGKTH) [compound 22] had a Count of 130.

Substance 23 (QVSSQEPNFIVKNN) [compound 23] registered a Count of 116.

Substance 24 (HFSAYEQYYVLRNS) [compound 24] came in with a Count of 111.

Substance 25 (YVIKYAPYYAVTRS) [compound 25] returned a Count of 93.

26 (HLPEEELYTIVRKT) [compound 26] returned a Count of 85.

Substance 27 (QDPCVWPYNGVKKC) [compound 27] came in with a Count of 79.

28 (HVHWDATYYAVTNS) [compound 28] yielded a Count of 77.

For the substance 29 (QFPYDHKNYVVKYS) [compound 29], the Count came out at 69.

As to 30 (RFHMVGPYNVATTS) [compound 30], the Count is given as 68.

Staying with this assay, now noted: unique sequence count (relative enrichment); peptides overlapping between Nerve2 and Nerve3.
31 (HLPWEGQLNIGNKS) [compound 31] showed a Count of 357.

In the case of 32 (DDLWQDLYGVVKKS) [compound 32], the Count came out at 106.

Regarding 33 (NLAWAESKFLLEKI) [compound 33], the Count stood at 71.

Regarding 34 (QLRYQEHYYLGYNS) [compound 34], the Count was 56.

On to 35 (YVPWQEPYYVQKNL) [compound 35], for which the Count was found to be 49.

36 (LVPWDETHKVVQRH) [compound 36] came in with a Count of 14.

Staying with this assay, now noted: unique sequence count (relative enrichment); peptides overlapping between Nerve2 and Plated Nerve2.
For the substance 41 (HSYREEPYYFGKRS) [compound 41], the Count was determined as 632.

Regarding 42 (QHTWKEPYNGQKRT) [compound 42], the Count is 577.

43 (QLPMGGPYERVNNT) [compound 43] displayed a Count of 380.

44 (SVPKVHPYYVVNNS) [compound 44] showed a Count of 333.

45 (QVPTGEPLYPVQKT) [compound 45] gave a Count of 323.

46 (QLPSYQAHDVMKVH) [compound 46]: the Count is recorded as 308.

Regarding 47 (QIPSQRPSSVGAIA) [compound 47], the Count was 292.

In turn, 48 (QFPGDERYYLATST) [compound 48] came in with a Count of 283.

The substance 49 (HVSSQEPYYVLRNS) [compound 49] yielded a Count of 252.

50 (RLPSDDHNTFGTRS) [compound 50] displayed a Count of 249.

51 (QLHGDELLSVVKNP) [compound 51] came in with a Count of 232.

As to 52 (ATEWEESYFHVKKF) [compound 52], the Count was found to be 223.

For 53 (RVPWEQSSWVVKRS) [compound 53], the Count came to 220.

The substance 54 (QIANKEPHTYVENS) [compound 54] showed a Count of 213.

Take 55 (QIRSEVTHSVVRES) [compound 55]: the Count is 213.

Substance 56 (QHTLNHPYSVVKTS) [compound 56] gave a Count of 205.

For the substance 57 (QVPSHELYFRPKES) [compound 57], the Count worked out at 204.

In the case of 58 (EVPGGVPYYPMKKF) [compound 58], the Count was determined as 201.

On to 59 (HVSGGQWVHGQKNS) [compound 59], for which the Count was determined as 200.

In the case of 60 (HVPSKQMNSLAKKS) [compound 60], the Count was 196.

Take 61 (QIHFGEPNYVVKKS) [compound 61]: the Count was 194.

Turning to 62 (QFPWEGSYYTAKQS) [compound 62], the Count was 193.

On to 63 (QIPWGEAYQAEKIT) [compound 63], for which the Count came to 191.

For the substance 64 (VVPSNAQHLAPNMS) [compound 64], the Count amounted to 191.

For 65 (HVAEAESYNVVKKT) [compound 65], the Count is given as 187.

In the case of 66 (QIPCEGPYSGVQMC) [compound 66], the Count is 186.

In turn, 67 (HITGGVPYPVVRDS) [compound 67] showed a Count of 185.

68 (HVLWEDSSYHVTHH) [compound 68] had a Count of 179.

Substance 69 (HVTYDEQKYFVKKS) [compound 69] gave a Count of 179.

Regarding 70 (QVPSVQPYYIGKNT) [compound 70], the Count was determined as 175.

The substance 71 (QARFEQPYSGLRDS) [compound 71] showed a Count of 167.

72 (LIPSAYPHSLWSKS) [compound 72] registered a Count of 166.

As for 73 (QLRSNEAYHVVKKS) [compound 73], the Count is 166.

The substance 74 (QTQMQEPKYGVSHS) [compound 74] yielded a Count of 163.

Substance 75 (DVRWDEPYYVDEKI) [compound 75] came in with a Count of 161.

On to 76 (HVPRVEPYNVVTNY) [compound 76], for which the Count stood at 158.

As to 77 (QFPGQALSFVHEKS) [compound 77], the Count is recorded as 152.

The substance 78 (HFPSKALNNTAKNT) [compound 78] gave a Count of 151.

As for 79 (QFPPEQPYGLANKS) [compound 79], the Count is listed as 150.

80 (HVPWAGRHYVAKHS) [compound 80]: the Count is recorded as 149.

Take 81 (RVAIDELYLIAHKS) [compound 81]: the Count worked out at 147.

As to 82 (QIPEQQPYNVFKKS) [compound 82], the Count is given as 142.

On to 83 (SIPGEDSLYAVTEH) [compound 83], for which the Count amounted to 142.

Regarding 84 (QCPSEQPNYVCKIF) [compound 84], the Count is on record as 140.

The substance 85 (HGQTQEPSYVTVYY) [compound 85] gave a Count of 139.

For 86 (HVHWQVPSNIVRNS) [compound 86], the Count worked out at 139.

The substance 87 (QLPWYEADYRMEYY) [compound 87] yielded a Count of 139.

The substance 88 (QLPSQAQNYYVTAS) [compound 88] had a Count of 137.

Consider 89 (QVTSEEHYFAVKKF) [compound 89], for which the Count is 136.

90 (TSLSGAPFHNANTF) [compound 90]: the Count is on record as 134.

Staying with this assay, now noted: unique sequence count (relative enrichment); peptides overlapping between Nerve3 and Plated Nerve 2.
37 (HVALEQPYYAVKES) [compound 37]: the Count turned out to be 342.

Consider 38 (QVQCKEQYYGVTNC) [compound 38], for which the Count came to 195.

Substance 39 (QALYAEPAYVSKKF) [compound 39] had a Count of 19.

40 (HVSMDERYYVVKKT) [compound 40] showed a Count of 17.
